Measured values from patent publication US20080221096A1, “Pyrido[3' ,2':4,5]Furo[3,2-d]Pyrimidine Derivatives” (priority 2005, published 2008).

Test system: PDE4
Experiment: PDE4 Assay Procedure ([3H]-cAMP SPA)
Type: biochemical
Settings: 15 nM [3H]-cAMP, 1 hour at room temperature, SPA beads
Experimental: Compounds to be tested were resuspended in DMSO at a stock concentration of 1 mM. […] These dilutions were done in 96-well plates. In some cases, plates containing diluted compounds were frozen before being assayed. In these cases, the plates were thawed at room temperature and stirred for 15 minutes.
Ten microliters of the diluted compounds were poured into a “low binding” assay plate. […] The reaction was initiated by adding ten microliters of a solution containing PDE4. The plate was then incubated under stirring for 1 hour at room temperature. After incubation the reaction was stopped with 50 microlitres of SPA beads, and the reaction was allowed to incubate for another 20 minutes at room temperature before measuring radioactivity using standard instrumentation.
The reaction mixture was prepared by adding 90 ml of H2O to 10 ml of 10× assay buffer (500 mM Tris pH 7.5, 83 mM MgCl2, 17 mM EGTA), and 40 microlitres 1 μCi/μL [3H]-cAMP. SPA beads solution was prepared by adding 500 mg to 28 ml H2O for a final concentration of 20 mg/ml beads and 18 mM zinc sulphate.

Structure (SMILES)	IC50
CC1(C)Cc2c(c(N3CCOCC3)nc3oc4c(N(CCN5CCOCC5)Cc5cccnc5)ncnc4c23)CO1 [Example 14, 2,2-Dimethyl-5-morpholin-4-yl-N-(2-morpholin-4-ylethyl)-N-(pyridin-3-ylmethyl)-1,4-dihydro-2H-pyrano[4″,3″:4′,5′]pyrido[3′,2′:4,5]furo[3,2-d]pyrimidin-8-amine]	10 nM
CC1(C)CCc2c(N3CCOCC3)nc3oc4c(N(CCO)CCN5CCOCC5)ncnc4c3c2C1 [Example 20, 2-[(2,2-Dimethyl-5-morpholin-4-yl-1,2,3,4-tetrahydropyrimido[4′,5′:4,5]furo[2,3-c]isoquinolin-8-yl)(2-morpholin-4-ylethyl)amino]ethanol]	0.8 nM
CC1(C)CCc2c(N3CCOCC3)nc3oc4c(NCCN5CCOCC5)ncnc4c3c2C1 [Example 23, 2,2-Dimethyl-5-morpholin-4-yl-N-(2-morpholin-4-ylethyl)-1,2,3,4-tetrahydropyrimido[4′,5′:4,5]furo[2,3-c]isoquinolin-8-amine]	8.9 nM
CCNc1nc2oc3c(NCCN4CCOCC4)ncnc3c2c2c1CCC(C)(C)C2 [Example 31, N^5-Ethyl-2,2-dimethyl-N^8-(2-morpholin-4-ylethyl)-1,2,3,4-tetrahydropyrimido[4′,5′:4,5]furo[2,3-c]isoquinoline-5,8-diamine]	2 nM
CCNc1nc2oc3c(NCCCN4CCCC4=O)ncnc3c2c2c1CCC(C)(C)C2 [Example 35, 1-(3-{[5-(Ethylamino)-2,2-dimethyl-1,2,3,4-tetrahydropyrimido[4′,5′:4,5]furo[2,3-c]isoquinolin-8-yl]amino}propyl)pyrrolidin-2-one]	1.6 nM
CC1(C)CCc2c(NC3CCC3)nc3oc4c(NCCN5CCOCC5)ncnc4c3c2C1 [Example 46, N^5-Cyclobutyl-2,2-dimethyl-N^8-(2-morpholin-4-ylethyl)-1,2,3,4-tetrahydropyrimido [4′,5′:4,5]furo[2,3-c]isoquinoline-5,8-diamine]	0.7 nM
